Molecular target: T1, human recombinant HDAC6 (Homo sapiens, UniProt Q9UBN7)
T1 construct: purchased Calbiochem 382180
T1 sequence (Q9UBN7 1-1215): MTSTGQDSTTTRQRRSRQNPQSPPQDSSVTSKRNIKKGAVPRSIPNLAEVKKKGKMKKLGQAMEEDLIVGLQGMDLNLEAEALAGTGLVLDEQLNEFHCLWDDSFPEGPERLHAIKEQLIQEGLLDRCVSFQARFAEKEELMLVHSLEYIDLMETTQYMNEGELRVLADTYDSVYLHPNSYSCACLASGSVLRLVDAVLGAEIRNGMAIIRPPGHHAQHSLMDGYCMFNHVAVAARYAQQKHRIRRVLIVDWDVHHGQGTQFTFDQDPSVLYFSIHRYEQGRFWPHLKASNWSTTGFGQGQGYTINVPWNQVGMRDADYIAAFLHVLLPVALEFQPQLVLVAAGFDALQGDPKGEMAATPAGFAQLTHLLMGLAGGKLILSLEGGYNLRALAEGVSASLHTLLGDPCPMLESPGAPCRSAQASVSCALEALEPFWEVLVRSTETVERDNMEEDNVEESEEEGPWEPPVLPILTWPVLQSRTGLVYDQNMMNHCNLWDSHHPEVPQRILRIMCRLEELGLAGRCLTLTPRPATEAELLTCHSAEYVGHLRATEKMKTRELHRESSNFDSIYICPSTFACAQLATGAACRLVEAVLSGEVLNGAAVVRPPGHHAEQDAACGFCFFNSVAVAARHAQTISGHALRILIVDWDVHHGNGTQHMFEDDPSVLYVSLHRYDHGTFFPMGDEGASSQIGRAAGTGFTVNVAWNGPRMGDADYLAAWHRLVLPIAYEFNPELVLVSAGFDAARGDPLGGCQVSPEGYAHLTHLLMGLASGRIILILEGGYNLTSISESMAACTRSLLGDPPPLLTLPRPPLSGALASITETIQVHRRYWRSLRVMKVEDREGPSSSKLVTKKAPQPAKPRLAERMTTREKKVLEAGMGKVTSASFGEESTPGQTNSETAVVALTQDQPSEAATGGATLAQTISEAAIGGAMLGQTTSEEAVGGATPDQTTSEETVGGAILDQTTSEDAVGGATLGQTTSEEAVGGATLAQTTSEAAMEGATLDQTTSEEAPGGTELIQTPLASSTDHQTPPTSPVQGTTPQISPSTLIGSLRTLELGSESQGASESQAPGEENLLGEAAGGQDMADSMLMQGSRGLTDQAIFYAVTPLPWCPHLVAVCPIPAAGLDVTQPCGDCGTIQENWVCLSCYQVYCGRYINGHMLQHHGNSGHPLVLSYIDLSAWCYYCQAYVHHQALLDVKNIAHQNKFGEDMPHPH
Assay: HDAC6 enzyme activity inhibition assay (HDAC Fluorimetric Drug Discovery Kit)
Assay type: biochemical
Conditions: for HDAC6 selectivity (fold): HDAC6 over HDAC1; for IC50: human recombinant HDAC6, same protocol as HDAC1, read-out: HDAC6
How it was run: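 Human recombinant HDAC1 or HDAC6 (0.3 μg) reacted with 10 μM Fluor de Lys-SIRT1 substrate and 5-fold compound dilutions for 60 min at 30 °C. Developer II added for 30 min, fluorescence read at Ex 360/Em 460; IC50 calculated from the readings.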

## CN1CCN(c2cccc(N(Cc3ccc(-c4nnc(C(F)F)o4)cc3)C(=O)N3CCS(=O)(=O)CC3)c2)CC1 [Compound 21621, N-(4-(5-(difluoromethyl)-1,3,4-oxadiazol-2-yl)benzyl)-N-(3-(4-methylpiperazin-1-yl)phenyl)thiomorpholine-4-carboxamide 1,1-dioxide]
  HDAC6 selectivity (fold): 16 fold
  IC50: 637 nM

## COc1cccc(N(Cc2ccc(-c3nnc(C(F)F)o3)cn2)C(=O)N2CCN(C)CC2)c1 [Compound 21622, N-((5-(5-(difluoromethyl)-1,3,4-oxadiazol-2-yl)pyridin-2-yl)methyl)-N-(3-methoxyphenyl)-4-methylpiperazine-1-carboxamide]
  HDAC6 selectivity (fold): 226 fold
  IC50: 44 nM

## COc1ccc(N(Cc2ccc(-c3nnc(C(F)F)o3)cn2)C(=O)N2CCN(C)CC2)cc1 [Compound 21623, N-((5-(5-(difluoromethyl)-1,3,4-oxadiazol-2-yl)pyridin-2-yl)methyl)-N-(4-methoxyphenyl)-4-methylpiperazine-1-carboxamide]
  HDAC6 selectivity (fold): 290 fold
  IC50: 35 nM

## CCN1CCN(C(=O)N(Cc2ccc(-c3nnc(C(F)F)o3)cn2)c2ccccc2)CC1 [Compound 21624, N-((5-(5-(difluoromethyl)-1,3,4-oxadiazol-2-yl)pyridin-2-yl)methyl)-4-ethyl-N-phenylpiperazine-1-carboxamide]
  HDAC6 selectivity (fold): 347 fold
  IC50: 29 nM

## O=C(N1CCS(=O)(=O)CC1)N(Cc1ccc(-c2nnc(C(F)F)o2)cn1)c1ccccc1F [Compound 21625, N-((5-(5-(difluoromethyl)-1,3,4-oxadiazol-2-yl)pyridin-2-yl)methyl)-N-(2-fluorophenyl)thiomorpholine-4-carboxamide 1,1-dioxide]
  HDAC6 selectivity (fold): 422 fold
  IC50: 24 nM

## O=C(N1CCS(=O)(=O)CC1)N(Cc1ccc(-c2nnc(C(F)F)o2)cn1)c1cccc(Cl)c1 [Compound 21626, N-(3-chlorophenyl)-N-((5-(5-(difluoromethyl)-1,3,4-oxadiazol-2-yl)pyridin-2-yl)methyl)thiomorpholine-4-carboxamide 1,1-dioxide]
  HDAC6 selectivity (fold): 645 fold
  IC50: 16 nM

## CN1CCN(c2cccc(N(Cc3ccc(-c4nnc(C(F)F)o4)cn3)C(=O)N3CCS(=O)(=O)CC3)c2)CC1 [Compound 21627, N-((5-(5-(difluoromethyl)-1,3,4-oxadiazol-2-yl)pyridin-2-yl)methyl)-N-(3-(4-methylpiperazin-1-yl)phenyl)thiomorpholine-4-carboxamide 1,1-dioxide]
  HDAC6 selectivity (fold): 22 fold
  IC50: 457 nM

## CN1CCN(c2ccc(N(Cc3ccc(-c4nnc(C(F)F)o4)cn3)C(=O)N3CCS(=O)(=O)CC3)cc2)CC1 [Compound 21628, N-((5-(5-(difluoromethyl)-1,3,4-oxadiazol-2-yl)pyridin-2-yl)methyl)-N-(4-(4-methylpiperazin-1-yl)phenyl)thiomorpholine-4-carboxamide 1,1-dioxide]
  HDAC6 selectivity (fold): 37 fold
  IC50: 271 nM

## CCN1CCN(C(=O)N(Cc2ccc(-c3nnc(C(F)F)o3)cn2)c2ccc(F)c(Cl)c2)CC1 [Compound 21629, N-(3-chloro-4-fluorophenyl)-N-((5-(5-(difluoromethyl)-1,3,4-oxadiazol-2-yl)pyridin-2-yl)methyl)-4-ethylpiperazine-1-carboxamide]
  HDAC6 selectivity (fold): 880 fold
  IC50: 11 nM

## O=C(N1CCOCC1)N(Cc1ccc(-c2nnc(C(F)F)o2)cn1)c1ccccc1 [Compound 21630, N-((5-(5-(difluoromethyl)-1,3,4-oxadiazol-2-yl)pyridin-2-yl)methyl)-N-phenylmorpholine-4-carboxamide]
  HDAC6 selectivity (fold): 549 fold
  IC50: 18 nM

## O=C(N1CCS(=O)(=O)CC1)N(Cc1ccc(-c2nnc(C(F)F)o2)cn1)c1ccc(Oc2ccccc2)cc1 [Compound 21631, N-((5-(5-(difluoromethyl)-1,3,4-oxadiazol-2-yl)pyridin-2-yl)methyl)-N-(4-phenoxyphenyl)thiomorpholine-4-carboxamide 1,1-dioxide]
  HDAC6 selectivity (fold): 138 fold
  IC50: 72 nM

## Cc1ccccc1N(Cc1ccc(-c2nnc(C(F)F)o2)cn1)C(=O)N1CCN(C)CC1 [Compound 21632, N-((5-(5-(difluoromethyl)-1,3,4-oxadiazol-2-yl)pyridin-2-yl)methyl)-4-methyl-N-(o-tolyl)piperazine-1-carboxamide]
  HDAC6 selectivity (fold): 245 fold
  IC50: 41 nM

## Cc1ccccc1N(Cc1ccc(-c2nnc(C(F)(F)F)o2)cn1)C(=O)N1CCN(C)CC1 [Compound 21633, 4-Methyl-N-(o-tolyl)-N-((5-(5-(trifluoromethyl)-1,3,4-oxadiazol-2-yl)pyridin-2-yl)methyl)piperazine-1-carboxamide]
  HDAC6 selectivity (fold): 58 fold
  IC50: 173 nM

## CN1CCN(C(=O)N(Cc2ccc(-c3nnc(C(F)(F)F)o3)cn2)c2ccccc2F)CC1 [Compound 21634, N-(2-fluorophenyl)-4-methyl-N-((5-(5-(trifluoromethyl)-1,3,4-oxadiazol-2-yl)pyridin-2-yl)methyl)piperazine-1-carboxamide]
  HDAC6 selectivity (fold): 83 fold
  IC50: 120 nM

## CN(C)[C@H]1CCN(C(=O)N(Cc2ccc(-c3nnc(C(F)F)o3)cc2F)c2cccc(Cl)c2F)C1 [Compound 21643, (S)—N-(3-chloro-2-fluorophenyl)-N-(4-(5-(difluoromethyl)-1,3,4-oxadiazol-2-yl)-2-fluorobenzyl)-3-(dimethylamino)pyrrolidine-1-carboxamide]
  HDAC6 selectivity (fold): 352 fold
  IC50: 28 nM

## CN(C)[C@H]1CCN(C(=O)N(Cc2ccc(-c3nnc(C(F)(F)F)o3)cc2F)c2cccc(Cl)c2F)C1 [Compound 21644, (S)—N-(3-chloro-2-fluorophenyl)-3-(dimethylamino)-N-(2-fluoro-4-(5-(trifluoromethyl)-1,3,4-oxadiazol-2-yl)benzyl)pyrrolidine-1-carboxamide]
  HDAC6 selectivity (fold): 74 fold
  IC50: 135 nM

## CN(C)[C@@H]1CCN(C(=O)N(Cc2ccc(-c3nnc(C(F)(F)F)o3)cc2F)c2cccc(Cl)c2F)C1 [Compound 21645, (R)—N-(3-chloro-2-fluorophenyl)-3-(dimethylamino)-N-(2-fluoro-4-(5-(trifluoromethyl)-1,3,4-oxadiazol-2-yl)benzyl)pyrrolidine-1-carboxamide]
  HDAC6 selectivity (fold): 46 fold
  IC50: 216 nM

## CCN1CCN(C(=O)N(Cc2ccc(-c3nnc(C(F)F)o3)cc2F)c2cccc(Cl)c2F)CC1 [Compound 21646, N-(3-chloro-2-fluorophenyl)-N-(4-(5-(difluoromethyl)-1,3,4-oxadiazol-2-yl)-2-fluorobenzyl)-4-ethylpiperazine-1-carboxamide]
  HDAC6 selectivity (fold): 317 fold
  IC50: 32 nM

## O=C(N1CCS(=O)(=O)CC1)N(Cc1ccc(-c2nnc(C(F)F)o2)cc1F)c1ccc(F)cn1 [Compound 21653, N-(4-(5-(difluoromethyl)-1,3,4-oxadiazol-2-yl)-2-fluorobenzyl)-N-(5-fluoropyridin-2-yl)thiomorpholine-4-carboxamide 1,1-dioxide]
  HDAC6 selectivity (fold): 246 fold
  IC50: 41 nM

## CCN1CCN(C(=O)N(Cc2ccc(-c3nnc(C(F)F)o3)cc2F)c2cccc(F)c2F)CC1 [Compound 21655, N-(4-(5-(difluoromethyl)-1,3,4-oxadiazol-2-yl)-2-fluorobenzyl)-N-(2,3-difluorophenyl)-4-ethylpiperazine-1-carboxamide]
  HDAC6 selectivity (fold): 690 fold
  IC50: 15 nM

## CCN1CCN(C(=O)N(Cc2ccc(-c3nnc(C(F)F)o3)cc2F)c2ccc(C)c(Cl)c2)CC1 [Compound 21657, N-(3-chloro-4-methylphenyl)-N-(4-(5-(difluoromethyl)-1,3,4-oxadiazol-2-yl)-2-fluorobenzyl)-4-ethylpiperazine-1-carboxamide]
  HDAC6 selectivity (fold): 226 fold
  IC50: 44 nM

## CN1CCN(C(=O)N(Cc2ccc(-c3nnc(C(F)F)o3)cc2F)c2cccc3cnn(C)c23)CC1 [Compound 21707, N-(4-(5-(Difluoromethyl)-1,3,4-oxadiazol-2-yl)-2-fluorobenzyl)-4-methyl-N-(1-methyl-1H-indazol-7-yl)piperazine-1-carboxamide]
  HDAC6 selectivity (fold): 199 fold
  IC50: 50 nM
